Biological target: prohibitin 2 (PHB2) (Homo sapiens, UniProt Q99623)
Assay: diazirine photoaffinity labelling (UV […] nm) with pull-down/western blot; DARTS
Assay type: cell-based
Parameters: endogenous PHB2 in ES-2 cells

Sequence of prohibitin 2 (PHB2) (Q99623 2-299): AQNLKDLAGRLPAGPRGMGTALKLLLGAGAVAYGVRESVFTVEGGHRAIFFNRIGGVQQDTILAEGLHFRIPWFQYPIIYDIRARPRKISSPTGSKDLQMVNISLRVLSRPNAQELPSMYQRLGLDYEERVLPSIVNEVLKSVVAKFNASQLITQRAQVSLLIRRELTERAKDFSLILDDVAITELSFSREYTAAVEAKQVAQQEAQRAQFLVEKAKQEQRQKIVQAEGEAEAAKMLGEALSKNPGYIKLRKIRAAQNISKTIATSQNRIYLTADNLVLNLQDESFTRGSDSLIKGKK

SMILES: C#CCCC1(CC(=O)N2CCC(n3cc(-c4cn5cc(-c6ccccc6)nc5c(C5=CCOCC5)n4)cn3)CC2)N=N1 [YL-939-1]
- diazirine photoaffinity labelling (UV 365 nm) with pull-down/western blot; DARTS: revealed that only PHB2 protein could be pulled down by the probe (Fig. 4D)
